Assay results published in patent US8425925B2, “Pesticidal tag” (priority 2007, dated 2013).
Like-named read-outs stand apart in the source and are kept apart here.

Tests used:
[1] = system: pyrethroid-resistant (PY-Resistant) horn fly (Haematobia irritans irritans) strain; assay type: in vivo
Procedure: (§1) A comparison of ivermectin formulations is made to determine their toxicity to horn fly (Haematobia irritans irritans) strains. Three formulations are tested: ivermectin alone, ivermectin formulated with epoxidized soybean oil (ESO), and ivermectin formulated with piperonyl butoxide (PBO). Both pyrethroid-resistant (PY-Resistant) and pyrethroid-susceptible (PY-Susceptible) horn fly strains are tested. […] See D C Sheppard & N C Hinkle, “A field procedure using disposable materials to evaluate horn fly insecticide resistance,” J. Agric. Entomol. 4:87-89 (1987).
(§2) Table 1 presents the contact toxicity results in units of μg/cm^2, computed using Log-Probit Analysis. See, e.g., V. K. Borooah, Logit and Probit (2002) (Sage Publications, Thousand Oaks, Calif., USA).
(§3) Further tests, similar to those of the Ivermectin tests described above, were performed using Abamectin compositions.

[2] = system: pyrethroid-susceptible (PY-Susceptible) horn fly (Haematobia irritans irritans) strain; assay type: in vivo
Procedure: as §1, §2, §3

[3] = 4-hour exposure, Log-Probit Analysis
[4] = PY-Susceptible, 4-hour exposure, Log-Probit Analysis

Substance | Lethal Concentrations (cell spanning LC50 and LC90) ([1]; 2 hour contact) | Lethal Concentrations LC50 ([1]; 4 hour contact) [microgram/sq. cm] | Lethal Concentrations LC90 ([1]; 4 hour contact) | Lethal Concentrations LC50 ([1]; 8 hour contact) [microgram/sq. cm] | Lethal Concentrations LC90 ([1]; 8 hour contact) [microgram/sq. cm] | PY-Susceptible versus PY-Resitant RR50 (resistance ratio) ([2]; 8 hour contact, LC50 of PY-susceptible divided by LC50 of PY-resistant horn flies) | PY-Susceptible versus PY-Resitant RR90 (resistance ratio) ([2]; 8 hour contact, LC90 of PY-susceptible divided by LC90 of PY-resistant horn flies) | Lethal Concentrations (cell spanning LC50 and LC90) ([2]; PY-Susceptible, 2 hour contact) | Lethal Concentrations (cell spanning LC50 and LC90) ([2]; PY-Susceptible, 4 hour contact) | Lethal Concentrations LC50 ([2]; PY-Susceptible, 8 hour contact) [microgram/sq. cm] | Lethal Concentrations LC90 ([2]; PY-Susceptible, 8 hour contact) [microgram/sq. cm] | Lethal Concentration LC50 [1, 3] [μg/cm^2] | Lethal Concentration LC90 [1, 3] [μg/cm^2] | Lethal Concentration LC50 [2, 4] [μg/cm^2] | Lethal Concentration LC90 [2, 4] [μg/cm^2]
Abamectin | no mortality | 138.5 | 1,089 microgram/sq. cm | 1.19 | 7.60 | 31.64 | 23.05 | no mortality | no mortality | 37.65 | 175.16 | – | – | – | –
Ivermectin | – | – | – | – | – | – | – | – | – | – | – | 93.8 | 478.0 | 165.6 | 418.3
